Structure (SMILES): O=C1CCCCCN1
- solubility (mole fraction) (in acetonitrile, 278.85 K): 0.149
- solubility (mole fraction) (in acetonitrile, 283.65 K): 0.187
- solubility (mole fraction) (in acetonitrile, 288.25 K): 0.236
- solubility (mole fraction) (in acetonitrile, 293.55 K): 0.294
- solubility (mole fraction) (in acetonitrile, 298.45 K): 0.359
- solubility (mole fraction) (in acetonitrile, 303.65 K): 0.427
- solubility (mole fraction) (in acetonitrile, 308.15 K): 0.486
- solubility (mole fraction) (in acetonitrile, 313.15 K): 0.558
- solubility (mole fraction) (in acetonitrile, 318.65 K): 0.637
- solubility (mole fraction) (in acetonitrile, 323.15 K): 0.725
- solubility (mole fraction) (in benzene, 279.25 K): 0.2
- solubility (mole fraction) (in benzene, 284.15 K): 0.232
- solubility (mole fraction) (in benzene, 288.55 K): 0.27
- solubility (mole fraction) (in benzene, 293.15 K): 0.31
- solubility (mole fraction) (in benzene, 297.85 K): 0.361
- solubility (mole fraction) (in benzene, 303.05 K): 0.423
- solubility (mole fraction) (in benzene, 307.25 K): 0.482
- solubility (mole fraction) (in benzene, 313.25 K): 0.566
- solubility (mole fraction) (in benzene, 317.45 K): 0.631
- solubility (mole fraction) (in benzene, 321.75 K): 0.701
- solubility (mole fraction) (in cyclohexane, 283.65 K): 0.0042
- solubility (mole fraction) (in cyclohexane, 288.25 K): 0.00616
- solubility (mole fraction) (in cyclohexane, 292.85 K): 0.00897
- solubility (mole fraction) (in cyclohexane, 297.95 K): 0.0144
- solubility (mole fraction) (in cyclohexane, 302.95 K): 0.0244
- solubility (mole fraction) (in cyclohexane, 307.25 K): 0.0373
- solubility (mole fraction) (in cyclohexane, 312.55 K): 0.0617
- solubility (mole fraction) (in cyclohexane, 318.35 K): 0.108
- solubility (mole fraction) (in cyclohexane, 322.65 K): 0.163
- solubility (mole fraction) (in ethyl acetate, 278.85 K): 0.103
- solubility (mole fraction) (in ethyl acetate, 283.65 K): 0.127
- solubility (mole fraction) (in ethyl acetate, 288.35 K): 0.156
- solubility (mole fraction) (in ethyl acetate, 292.95 K): 0.192
- solubility (mole fraction) (in ethyl acetate, 298.05 K): 0.243
- solubility (mole fraction) (in ethyl acetate, 302.85 K): 0.304
- solubility (mole fraction) (in ethyl acetate, 307.15 K): 0.364
- solubility (mole fraction) (in ethyl acetate, 312.35 K): 0.459
- solubility (mole fraction) (in ethyl acetate, 317.15 K): 0.557
- solubility (mole fraction) (in ethyl acetate, 321.55 K): 0.654

Reference: BigSolDB 2.1
